Measurements published in patent US8242101B2, “Leukemia treatment method and composition” (University of South Florida, priority 2003, dated 2012).
“Also recorded” adds a separate entry of the source.

Key:
MV4-11 (MV) cells = assay: Cell cycle status and apoptosis of MV4-11 cells; assay type: cell-based, human
[1] = test system: p-FLT-3, p-AKT and p-ERK1/2; assay: Western analyses of FLT-3, AKT, ERK1/2 and their phospho forms in MV cells; assay type: cell-based, human
[2] = test system: FLT-3 and p-FLT-3 on MV cells; assay: Flow cytometry (FCM) assay of surface FLT-3 and p-FLT-3 on MV cells; assay type: cell-based, human; conditions: for surface expression of p-FLT-3: FCM
Protocol: (§1) Simultaneous measurement of surface FLT-3 kinase and Phospho (P Y591) FLT-3 kinase in Acute Leukemic cells using a flow cytometric assay.
(§2) Leukemic cells are harvested by spinning at 1000 rpm at 4 deg for 5 minutes. The cells are washed twice with cold PBS (1×). Equal numbers of cells are utilized for FLT-3 and p-FLT-3 analyses.
(§3) In the assay to detect surface FLT-3 expression, shown in FIG. 8, the cells 10 are incubated on ice for thirty minutes 20 in PBS (1×) 30 containing 3% FBS (blocking buffer) 40. Subsequently, the cells are washed twice with cold PBS (1×). Cells are then incubated with either 0.2 Tg of anti-FLT-3 antibody 50 (sc-19635, Santa Cruz Biotechnology, Calif.) or concentration-matched isotype, control antibody (IgG1, Caltag, Burlingame, Calif.) 60 diluted in the blocking buffer and kept on ice for one hour 70. Cells are then washed twice in PBS (1×) and incubated in FITC-conjugated secondary antibody (Molecular Probes, Eugene, Oreg.) 80 for additional thirty minutes on ice 90. The cells are then rinsed twice with PBS (1×) and resuspended in 400 TL PBS (1×) 100. The fluorescence is measured by FACScan Cytometer (San Jose, Calif.).
To determine the p-FLT-3 expression, leukemia cells are fixed and permeabilized. Referring now to the flowchart in FIG. 9, cells 10 are fixed in 1% formaldehyde 20 at 37 degrees for ten minutes 30, followed by incubation on ice for ten minutes. Cells are then spun down and permeabilized by resuspending them in ice cold 90% methanol 40 for thirty minutes. Following this, cells are washed twice in the blocking buffer (PBS (1×) containing 0.5% BSA) 50 and then incubated in the blocking buffer for an additional ten minutes at room temperature (RT) 60. Next, to the cells, either 0.4 Tg of monoclonal antibody to p-FLT-3 (Cell Signaling, Beverley, Mass.) 70 or isotype control antibody (IgG2b, Caltag, Burlingame, Calif.) 80 is added and cells are then incubated at RT for thirty minutes 90. […] After thirty minutes of incubation 110, cells are washed twice with PBS (1×) and resuspended in 400 TI of PBS (1×) 120 and analyzed by FACScan 130.

histone H3 and H4, p21 = assay: Histone acetylation and p21 levels in AML cells; assay type: cell-based, human; conditions: LAQ824 10 to 100 nM
[3] = test system: FLT-3 and p-FLT-3 in RS cells; assay: FLT-3 and p-FLT-3 levels in RS cells by Western and FCM analyses; assay type: cell-based, human
Protocol: as §1, §2, §3
To determine the p-FLT-3 expression, leukemia cells are fixed and permeabilized. […] After thirty minutes of incubation 110, cells are washed twice with PBS (1×) and resuspended in 400 TI of PBS (1×) 120 and analyzed by FACScan 130.

Hsp-90 = Hsp-90 acetylation, ATP binding and chaperone activities; assay type: cell-based; conditions: earlier work of the inventors

Structure (SMILES) | apoptosis (MV4-11 (MV) cells; MV4-11 cells, single agent, FIG. 2 and FIG. 3) | levels of p-FLT-3, p-AKT and p-ERK1/2 ([1]; LAQ824 20 to 100 nM) | FLT-3, P-AKT and P-ERK levels ([1]; MV4-11 cells, immunoblots, FIG. 3) | surface expression of p-FLT-3 [2] | FLT-3 and p-FLT-3 levels ([2]; Western and FCM analyses) | acetylation of histone H3 and H4 (histone H3 and H4, p21) | p21 levels (histone H3 and H4, p21) | FLT-3 and p-FLT-3 levels [3] | acetylation of Hsp-90, its ATP binding and chaperone activities (Hsp-90) | apoptosis, MV compared with RS cells (MV4-11 (MV) cells; 20 to 200 nM PKC412, dose-dependent) | cell cycle G1 phase accumulation (MV4-11 (MV) cells; exposure to 20 to 200 nM PKC412) | p-FLT-3, p-AKT and p-ERK1/2 levels ([1]; Western analyses, 20 to 200 nM PKC412)
O=C(/C=C/c1ccc(CN(CCO)CCc2c[nH]c3ccccc23)cc1)NO [LAQ824] | induces apoptosis of MV4-11 cells; also recorded: inducing apoptosis of MV4-11 cells | down regulated the levels of p-FLT-3, p-AKT and p-ERK1/2 | attenuates FLT-3, P-AKT, and P-ERK | attenuates cell surface p-FLY-3 expression | attenuated both FLT-3 and p-FLT-3 levels in a dose-dependent manner | induced the acetylation of histone H3 and H4 | increases p21; also recorded: increased p21 levels | attenuated both FLT-3 and p-FLT-3 levels in a dose-dependent manner | induces acetylation of Hsp-90 and inhibition of its ATP binding and chaperone activities | – | – | –
CO[C@@H]1[C@H](N(C)C(=O)c2ccccc2)C[C@H]2O[C@]1(C)n1c3ccccc3c3c4c(c5c6ccccc6n2c5c31)C(=O)NC4 [PKC412] | – | – | – | inhibited the surface expression of p-FLT-3 | – | – | – | – | – | significantly more apoptosis of MV than RS cells | induced cell cycle G1 phase accumulation | marked attenuation of p-FLT-3, p-AKT and p-ERK1/2
